Measurements from US20020098186A1, “Use of endothelin inhibitors for treatment or prevention of fibrotic disorders” (priority 1999, published 2002).

Experiments:
liver collagen = assay: Liver collagen (hydroxyproline) content in BDO rats; assay type: in vivo, rat
Procedure: (§1) Female adult wistar rats, average weight 206±19 g, underwent the following microsurgical procedure under an operating microscope (OPMI 6-2, Zeiss, Germany) (B. Gerling, M. Becker, J. Waldschmidt, D. Schuppan (1996). J. Hepatol. 25:79-84; G. Boigk, L. Stroedter, H. Herbst H, et al. (1997). Hepatology 26:643-639.): 1. midline abdominal incision following anaesthesia with 100 mg/kg ketamine-hydroochloride (Ketanest®, Parke-Davis, Germany) and 10 mg/kg 5,6-dihydro-2-(2,6-xylidino)-4H-1,3-thiazine-hydrochloride (Rompun®, Bayer, Germany); 2. dissection of the common bile duct, insertion of a teflon catheter (Abbocath -T 26 G, venisystems, U.S.A.) and placement of a distal complete and a proximal incomplete ligature with 5-0 silk (Permahand , Ethicon, Germany); 3. retrograde injection of sodium-amidotrizoate (Ethibloc®, Ethicon Germany) at a dose of 0.02 ml/100 g body weight; 4. removal of the catheter, closure of the proximal ligature, scission of the bile duct between the ligatures and wound closure. After bile duct occlusion (BDO), animals received normal chow (Altromin®, Lage, Germany) and were allowed free access to water. […] The following therapeutic groups were formed: 1. BDO and LU at 80 mg/kg/d for 6 weeks (BDO 80/1-6:n=20); 2. BDO and LU at 80 mg/kg/d from week 4-6 of BDO (BDO 80/4-6:n=20); 3. BDO and LU at 10 mg/kg/d (sham 80/ 1-6:n=10), rats without medication (control: n=10) and bile duct occluded animals without treatment for 6 weeks (BDO: n=20) served as controls. […]
Hydroxyproline (HYP) was quantified in duplicates from 0.2 g of formalin-fixed liver as described (d. Schuppan, J. M. Dumont, K. Y. Kim, et al (1986). J. Hepatol. 3:27-37; C. Genovese; D. Rowe; B. Kream (1984). Biochemistry 23. 6210-6216.). […] Absorption was read at 558 nm and HYP concentrations were determined from a standard curve with 0 to 1.6 μg HYP (Merck, Germany). The hepatic HYP concentration was calculated using the formula [formula]
and the total liver HYP content calculated by multiplication with the liver weight.

[1] = test system: aminoterminal propeptide of procollagen type III (PIIINP); assay: Serum PIIINP radioimmunoassay in BDO rats; assay type: in vivo, rat; conditions: LU-treated BDO rats, dose-dependent
Procedure: as §1, with “2.” for “2. BDO and LU at 80 mg/kg/d from week 4-6 of BDO (BDO 80/4-6:n=20); 3. BDO and LU at 10 mg/kg/d (sham 80/ 1-6:n=10), rats without medication (control: n=10) and bile duct occluded animals without treatment for 6 weeks (BDO: n=20) served as controls.”
Standard laboratory parameters were measured by our in-hospital clinical chemical department, using an automated analyser (BM/Hitachi 747). […]

In the case of COc1cc(OC)nc(O[C@H](C(=O)O)C(OC)(c2ccccc2)c2ccccc2)n1 [LU], the “Reduction of relative liver collagen” value (liver collagen; 10 mg/kg/d over 6 weeks of BDO) is reported as 35%, the “Reduction of hepatic collagen” value (liver collagen; 80 mg LU/kg/d from week 4-6 after BDO, p<0.001) is reported as ~50% and the “Reduction of liver collagen (both as relative and total liver collagen content)” value (liver collagen; 80 mg LU/kg/d over the 6 weeks of BDO, vs untreated BDO, p<0.001) is reported as 50-55%. For the same compound, the “Lowering of serum PIIINP” value [1] was 20-50%.
